Measured values reported in the kinase profiling compilation of Christmann-Franck et al. (2016).

Assays:
Experiment in all cases: SelectScreen, TR FRET
Details in all cases: compound 5.0 µM
CSNK1A1 (human) = CSNK1A1 (human) (UniProt P48729)
EPHB3 (human) = EPHB3 (human) (UniProt P54753)
FLT3 (human) = FLT3 (human) (UniProt P36888)
IGF1R (human) = IGF1R (human) (UniProt P08069)
CAMK2B (human) = CAMK2B (human) (UniProt Q13554)
MINK1 (human) = MINK1 (human) (UniProt Q8N4C8)
CDK2 CCNA2 (human) = CDK2 CCNA2 (human) (UniProt P24941+P20248)
RPS6KA1 KD1 KD2 (human) = RPS6KA1 KD1 KD2 (human) (UniProt Q15418)
MAPK1 (human) = MAPK1 (human) (UniProt P28482)
SGK3 (human) = SGK3 (human) (UniProt Q96BR1)
BLK (human) = BLK (human) (UniProt P51451)
[1] = system: LYN (human), P07948 [23-43 del]
PRKD1 (human) = PRKD1 (human) (UniProt Q15139)
MAPK3 (human) = MAPK3 (human) (UniProt P27361)
RPS6KA4 KD1 KD2 (human) = RPS6KA4 KD1 KD2 (human) (UniProt O75676)
SGK1 (human) = SGK1 (human) (UniProt O00141)
RPS6KA3 KD1 KD2 (human) = RPS6KA3 KD1 KD2 (human) (UniProt P51812)
Chain of RPS6KA3 KD1 KD2 (human) (P51812 whole entry, looked up): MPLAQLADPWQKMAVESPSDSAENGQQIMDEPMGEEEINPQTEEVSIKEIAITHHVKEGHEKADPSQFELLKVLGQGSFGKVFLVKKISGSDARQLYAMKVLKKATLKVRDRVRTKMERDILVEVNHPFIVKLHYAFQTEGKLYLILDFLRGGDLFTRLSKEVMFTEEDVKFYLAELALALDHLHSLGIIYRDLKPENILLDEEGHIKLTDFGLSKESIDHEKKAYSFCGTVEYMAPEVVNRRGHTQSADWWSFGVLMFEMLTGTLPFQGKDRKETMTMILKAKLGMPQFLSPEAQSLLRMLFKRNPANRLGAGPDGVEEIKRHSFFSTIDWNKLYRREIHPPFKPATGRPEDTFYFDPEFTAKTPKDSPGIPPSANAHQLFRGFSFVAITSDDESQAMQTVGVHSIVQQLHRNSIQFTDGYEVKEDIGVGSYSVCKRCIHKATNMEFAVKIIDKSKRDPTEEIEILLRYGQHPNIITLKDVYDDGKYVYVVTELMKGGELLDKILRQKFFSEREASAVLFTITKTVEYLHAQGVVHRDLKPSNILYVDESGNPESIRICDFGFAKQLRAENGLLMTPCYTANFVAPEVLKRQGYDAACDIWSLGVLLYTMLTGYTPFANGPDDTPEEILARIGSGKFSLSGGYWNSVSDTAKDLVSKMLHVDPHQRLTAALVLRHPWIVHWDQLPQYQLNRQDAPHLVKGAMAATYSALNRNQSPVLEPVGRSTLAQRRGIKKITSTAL

PASK (human) = PASK (human) (UniProt Q96RG2)
Chain of PASK (human) (Q96RG2 whole entry, looked up): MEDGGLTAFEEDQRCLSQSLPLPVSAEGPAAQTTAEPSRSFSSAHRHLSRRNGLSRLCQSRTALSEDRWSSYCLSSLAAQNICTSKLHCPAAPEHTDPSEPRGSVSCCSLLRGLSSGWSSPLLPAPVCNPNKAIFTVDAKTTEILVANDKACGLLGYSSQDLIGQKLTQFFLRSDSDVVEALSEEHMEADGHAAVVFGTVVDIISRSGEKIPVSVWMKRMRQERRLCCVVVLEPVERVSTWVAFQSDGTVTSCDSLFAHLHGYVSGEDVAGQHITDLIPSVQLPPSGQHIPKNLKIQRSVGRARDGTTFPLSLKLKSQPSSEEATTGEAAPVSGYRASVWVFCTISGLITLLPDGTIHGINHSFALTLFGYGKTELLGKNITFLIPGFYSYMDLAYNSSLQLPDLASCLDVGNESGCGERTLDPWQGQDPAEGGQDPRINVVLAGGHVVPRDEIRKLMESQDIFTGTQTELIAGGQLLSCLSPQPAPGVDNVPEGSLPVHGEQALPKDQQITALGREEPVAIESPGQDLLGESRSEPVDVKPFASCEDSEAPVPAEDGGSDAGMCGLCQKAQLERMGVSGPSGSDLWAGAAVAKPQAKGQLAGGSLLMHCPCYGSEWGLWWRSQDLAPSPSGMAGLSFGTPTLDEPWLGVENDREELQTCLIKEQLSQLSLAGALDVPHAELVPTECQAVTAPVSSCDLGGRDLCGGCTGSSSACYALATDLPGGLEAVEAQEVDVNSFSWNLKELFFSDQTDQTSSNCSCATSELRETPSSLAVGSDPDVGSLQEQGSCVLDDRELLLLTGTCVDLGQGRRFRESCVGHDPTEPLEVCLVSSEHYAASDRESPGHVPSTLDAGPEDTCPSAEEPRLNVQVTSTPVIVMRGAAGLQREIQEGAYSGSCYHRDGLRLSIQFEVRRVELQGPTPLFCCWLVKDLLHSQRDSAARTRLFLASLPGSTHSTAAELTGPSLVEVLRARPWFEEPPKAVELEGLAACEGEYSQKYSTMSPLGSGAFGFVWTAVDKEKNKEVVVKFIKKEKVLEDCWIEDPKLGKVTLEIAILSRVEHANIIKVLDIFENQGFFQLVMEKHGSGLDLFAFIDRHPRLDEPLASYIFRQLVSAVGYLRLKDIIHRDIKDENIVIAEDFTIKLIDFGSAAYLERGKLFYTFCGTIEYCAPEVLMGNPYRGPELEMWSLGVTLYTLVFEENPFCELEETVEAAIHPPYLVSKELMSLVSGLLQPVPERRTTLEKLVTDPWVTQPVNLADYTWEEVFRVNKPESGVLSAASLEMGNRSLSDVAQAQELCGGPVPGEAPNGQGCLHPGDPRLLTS

NEK1 (human) = NEK1 (human) (UniProt Q96PY6)
SRMS (human) = SRMS (human) (UniProt Q9H3Y6)
TYRO3 (human) = TYRO3 (human) (UniProt Q06418)
NTRK3 (human) = NTRK3 (human) (UniProt Q16288)
EPHA5 (human) = EPHA5 (human) (UniProt P54756)
PRKX (human) = PRKX (human) (UniProt P51817)
FYN (human) = FYN (human) (UniProt P06241)
Chain of FYN (human) (P06241 whole entry, looked up): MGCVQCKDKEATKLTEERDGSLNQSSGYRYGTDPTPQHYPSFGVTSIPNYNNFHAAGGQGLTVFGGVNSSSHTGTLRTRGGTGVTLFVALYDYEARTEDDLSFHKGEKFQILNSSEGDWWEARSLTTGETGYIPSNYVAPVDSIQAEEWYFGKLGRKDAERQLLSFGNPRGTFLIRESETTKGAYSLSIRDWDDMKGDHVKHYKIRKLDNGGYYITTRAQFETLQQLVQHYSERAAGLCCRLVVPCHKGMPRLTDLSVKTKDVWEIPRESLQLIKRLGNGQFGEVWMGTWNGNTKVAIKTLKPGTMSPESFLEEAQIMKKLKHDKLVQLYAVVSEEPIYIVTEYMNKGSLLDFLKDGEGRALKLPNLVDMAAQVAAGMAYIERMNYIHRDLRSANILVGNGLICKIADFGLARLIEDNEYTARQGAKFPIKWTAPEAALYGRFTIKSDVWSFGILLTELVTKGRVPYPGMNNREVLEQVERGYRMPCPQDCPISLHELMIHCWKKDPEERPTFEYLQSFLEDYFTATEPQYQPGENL

[2] = system: EGFR (human), P00533 [L861Q]
HCK (human) = HCK (human) (UniProt P08631)
CSNK2A1 (human) = CSNK2A1 (human) (UniProt P68400)
ITK (human) = ITK (human) (UniProt Q08881)
CDK5 CDK5R1 p35 (human) = CDK5 CDK5R1 p35 (human) (UniProt Q00535+Q15078)
PHKG2 (human) = PHKG2 (human) (UniProt P15735)
CSNK1D (human) = CSNK1D (human) (UniProt P48730)
FGFR4 (human) = FGFR4 (human) (UniProt P22455)
NEK2 (human) = NEK2 (human) (UniProt P51955)
STK24 (human) = STK24 (human) (UniProt Q9Y6E0)
ALK (human) = ALK (human) (UniProt Q9UM73)
DYRK3 (human) = DYRK3 (human) (UniProt O43781)
MAP2K6 (human) = MAP2K6 (human) (UniProt P52564)
EGFR (human) = EGFR (human) (UniProt P00533)
INSRR (human) = INSRR (human) (UniProt P14616)
Chain of INSRR (human) (P14616 whole entry, looked up): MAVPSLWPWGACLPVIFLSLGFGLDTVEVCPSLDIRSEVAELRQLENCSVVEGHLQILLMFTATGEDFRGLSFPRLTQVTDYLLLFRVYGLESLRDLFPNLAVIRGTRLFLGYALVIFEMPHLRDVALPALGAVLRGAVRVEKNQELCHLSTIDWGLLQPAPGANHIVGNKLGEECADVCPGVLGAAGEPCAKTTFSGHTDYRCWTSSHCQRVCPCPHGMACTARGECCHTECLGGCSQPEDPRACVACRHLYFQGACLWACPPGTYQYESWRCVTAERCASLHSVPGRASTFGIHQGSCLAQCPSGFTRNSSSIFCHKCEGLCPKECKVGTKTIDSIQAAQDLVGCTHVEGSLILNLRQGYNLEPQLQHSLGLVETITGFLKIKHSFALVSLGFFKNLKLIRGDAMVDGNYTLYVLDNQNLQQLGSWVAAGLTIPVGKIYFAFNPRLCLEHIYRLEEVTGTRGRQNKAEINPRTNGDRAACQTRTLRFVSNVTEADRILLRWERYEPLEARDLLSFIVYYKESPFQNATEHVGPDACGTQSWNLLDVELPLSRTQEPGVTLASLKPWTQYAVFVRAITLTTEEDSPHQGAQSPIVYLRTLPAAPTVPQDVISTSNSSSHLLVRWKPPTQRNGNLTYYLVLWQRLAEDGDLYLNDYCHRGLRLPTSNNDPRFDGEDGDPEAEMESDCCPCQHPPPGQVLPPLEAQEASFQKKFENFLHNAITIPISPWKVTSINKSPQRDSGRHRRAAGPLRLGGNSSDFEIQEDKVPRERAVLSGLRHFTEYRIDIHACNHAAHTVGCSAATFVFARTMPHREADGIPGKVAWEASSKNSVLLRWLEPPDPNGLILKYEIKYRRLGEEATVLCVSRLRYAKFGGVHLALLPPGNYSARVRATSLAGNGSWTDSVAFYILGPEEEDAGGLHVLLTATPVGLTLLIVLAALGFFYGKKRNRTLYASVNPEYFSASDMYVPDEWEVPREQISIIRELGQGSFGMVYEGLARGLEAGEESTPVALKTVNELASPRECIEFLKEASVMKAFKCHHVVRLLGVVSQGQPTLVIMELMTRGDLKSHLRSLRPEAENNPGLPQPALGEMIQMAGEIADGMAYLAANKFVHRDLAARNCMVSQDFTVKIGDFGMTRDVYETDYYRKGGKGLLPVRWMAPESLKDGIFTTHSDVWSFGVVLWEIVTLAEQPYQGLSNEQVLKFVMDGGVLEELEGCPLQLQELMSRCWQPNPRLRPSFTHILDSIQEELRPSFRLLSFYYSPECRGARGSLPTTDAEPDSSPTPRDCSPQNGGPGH

Chain of FLT3 (human) (P36888 whole entry, looked up): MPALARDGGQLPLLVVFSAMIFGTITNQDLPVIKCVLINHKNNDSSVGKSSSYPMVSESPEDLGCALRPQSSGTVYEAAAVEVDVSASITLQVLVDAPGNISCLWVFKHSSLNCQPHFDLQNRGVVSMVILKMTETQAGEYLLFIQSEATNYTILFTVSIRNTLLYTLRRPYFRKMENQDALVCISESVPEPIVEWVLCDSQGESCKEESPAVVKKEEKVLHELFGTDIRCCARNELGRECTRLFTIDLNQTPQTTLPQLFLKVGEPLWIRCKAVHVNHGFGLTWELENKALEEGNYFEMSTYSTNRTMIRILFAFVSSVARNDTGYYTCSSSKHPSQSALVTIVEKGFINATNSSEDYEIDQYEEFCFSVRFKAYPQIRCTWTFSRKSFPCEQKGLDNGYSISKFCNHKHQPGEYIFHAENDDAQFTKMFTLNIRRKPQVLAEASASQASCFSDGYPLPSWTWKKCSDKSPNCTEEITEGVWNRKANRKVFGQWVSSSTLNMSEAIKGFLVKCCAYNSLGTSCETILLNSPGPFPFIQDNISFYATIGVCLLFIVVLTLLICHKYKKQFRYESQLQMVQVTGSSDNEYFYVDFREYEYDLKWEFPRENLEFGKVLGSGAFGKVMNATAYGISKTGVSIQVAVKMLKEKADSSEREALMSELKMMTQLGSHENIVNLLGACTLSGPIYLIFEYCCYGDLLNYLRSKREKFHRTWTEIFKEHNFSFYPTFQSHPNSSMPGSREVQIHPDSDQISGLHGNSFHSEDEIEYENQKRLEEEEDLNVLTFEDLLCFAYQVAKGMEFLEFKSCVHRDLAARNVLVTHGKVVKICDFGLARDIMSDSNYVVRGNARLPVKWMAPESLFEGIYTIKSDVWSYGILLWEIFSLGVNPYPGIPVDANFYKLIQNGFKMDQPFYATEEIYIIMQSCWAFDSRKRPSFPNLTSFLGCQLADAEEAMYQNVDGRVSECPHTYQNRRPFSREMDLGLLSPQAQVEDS

Structure (SMILES): Nc1cc(C(F)(F)F)c(-c2cc(N3CCOCC3)nc(N3CCOCC3)n2)cn1
- inhibition (CSNK1A1 (human)): -1%
- inhibition (EPHB3 (human)): -1%
- inhibition (FLT3 (human)): 18%
- inhibition (IGF1R (human)): 1%
- inhibition (CAMK2B (human)): 9%
- inhibition (MINK1 (human)): 4%
- inhibition (CDK2 CCNA2 (human)): 2%
- inhibition (RPS6KA1 KD1 KD2 (human)): 5%
- inhibition (MAPK1 (human)): 6%
- inhibition (SGK3 (human)): 20%
- inhibition (BLK (human)): -3%
- inhibition [1]: 3%
- inhibition (PRKD1 (human)): 5%
- inhibition (MAPK3 (human)): 7%
- inhibition (RPS6KA4 KD1 KD2 (human)): 6%
- inhibition (SGK1 (human)): 25%
- inhibition (RPS6KA3 KD1 KD2 (human)): 2%
- inhibition (PASK (human)): -1%
- inhibition (NEK1 (human)): 8%
- inhibition (SRMS (human)): 13%
- inhibition (TYRO3 (human)): 3%
- inhibition (NTRK3 (human)): 4%
- inhibition (EPHA5 (human)): 0%
- inhibition (PRKX (human)): 0%
- inhibition (FYN (human)): 9%
- inhibition [2]: 6%
- inhibition (HCK (human)): 10%
- inhibition (CSNK2A1 (human)): 1%
- inhibition (ITK (human)): 3%
- inhibition (CDK5 CDK5R1 p35 (human)): -1%
- inhibition (PHKG2 (human)): 3%
- inhibition (CSNK1D (human)): 4%
- inhibition (FGFR4 (human)): 5%
- inhibition (NEK2 (human)): 7%
- inhibition (STK24 (human)): 7%
- inhibition (ALK (human)): 1%
- inhibition (DYRK3 (human)): 11%
- inhibition (MAP2K6 (human)): 6%
- inhibition (EGFR (human)): 3%
- inhibition (INSRR (human)): 3%
